Experimental data: patent US8519110B2, “mRNA cap analogs” (Board of Supervisors of Louisiana State University And …, priority 2008, dated 2013)
Where two headings read alike, the source gives them in different places.

Key:
[1] = target: cap-dependent translation of luciferase mRNA in reticulocyte lysate; test: Inhibition of cap-dependent translation in vitro by free cap analogs; assay type: biochemical, rabbit
Method: In vitro translation reactions were performed in 12.5 μl for 60 min at 30° C. under conditions favorable for cap-dependent translation. In some cases, the reaction mixture was incubated for 60 min at 30° C. prior to adding the dinucleotide cap analog (inhibitor) and m2^7,3′-OGppG-capped luciferase mRNA to start translation. In other cases, to analyze biological stability, the cap analog was incubated in the translation mixture for 60 min at 30° C. prior to adding the luciferase mRNA to start translation. A typical reaction mixture contained 56% reticulocyte lysate, the 20 “standard” amino acids (0.01 mM each), MgCl2 (1.2 mM), potassium acetate (170 mM), RiboLock Ribonuclease Inhibitor (0.32 U/μl), cap analog solution ( 1/10 of total reaction volume), and m2^7,3′-OGpppG-capped luciferase RNA. […] Reactions were performed with cap analog concentrations ranging from 0.12 to 100 μM. Luciferase activity was measured in a luminometer. […] The program OriginPro8 (OriginLab) was used for curve fitting with the equation qLUC=Z/(1+I/IC50)+N, where qLUC is the activity of luciferase synthesized in the presence of cap analog, Z is the activity of luciferase synthesized in the absence of cap analog, N is the activity of luciferase synthesized in a cap-independent manner, and I is the cap analog concentration.
Two type of experiments were carried out. In one set of experiments (condition A), a cap analog was added to the translation system together with luciferase mRNA. In the other set of experiments (condition B), the cap analog was incubated in the translation system for 60 min before addition of mRNA. […] There was a correlation between the resistance to hydrolysis by DcpS and the stability of analogs in the translation system.

[2] = test system: rabbit reticulocyte lysate system; test: In vitro translation efficiency of capped luciferase mRNA with 31-base poly(A) tail, method II transcripts; assay type: biochemical; details: for In vitro translational efficiency (method II): Table 3, relative to m^7GpppG-capped mRNA = 1.0; for Translation efficiency in comparison to m^7GpppG-LUC-(A)31 mRNA, Experiment No. 1: experiment 1; for Translation efficiency in comparison to m^7GpppG-LUC-(A)31 mRNA, Experiment No. 2: experiment 2; for Translation efficiency in comparison to m^7GpppG-LUC-(A)31 mRNA, Experiment No. 3: experiment 3; for Translation efficiency in comparison to m^7GpppG-LUC-(A)31 mRNA, Mean: mean of experiments; for Translation efficiency in comparison to m^7GpppG-LUC-(A)31 mRNA, Experiment No. 5: experiment 5; for Translation efficiency in comparison to m^7GpppG-LUC-(A)31 mRNA, Experiment No. 4: experiment 4
How it was run: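 Cap-analog-primed SP6 transcripts (β-globin 5′-UTR, firefly luciferase, 31-A tail; 0.5 mM cap analog, 0.1 mM GTP) were translated in nuclease-treated rabbit reticulocyte lysate for 60 min at 30° C at 0.25–4 μg/ml mRNA. Efficiency is the slope of luciferase activity versus mRNA concentration, relative to m^7GpppG-capped mRNA (1.0).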

Human DcpS = target: T1, Human DcpS (Homo sapiens, UniProt Q96C86); test: Assay of susceptibility to DcpS (RP HPLC); assay type: biochemical
T1 construct: made in house; host or cells: Escherichia coli
T1 sequence (Q96C86 1-337): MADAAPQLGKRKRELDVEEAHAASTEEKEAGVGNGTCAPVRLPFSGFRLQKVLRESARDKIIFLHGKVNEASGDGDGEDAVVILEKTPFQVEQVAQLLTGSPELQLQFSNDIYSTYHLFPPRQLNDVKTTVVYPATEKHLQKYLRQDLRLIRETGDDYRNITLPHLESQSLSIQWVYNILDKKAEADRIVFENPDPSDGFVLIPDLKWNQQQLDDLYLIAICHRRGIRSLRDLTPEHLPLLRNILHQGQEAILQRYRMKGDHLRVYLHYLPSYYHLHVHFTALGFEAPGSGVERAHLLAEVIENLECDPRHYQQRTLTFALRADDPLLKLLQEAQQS
How it was run: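 E. coli-expressed human DcpS reacted with 40 μM cap analog at 30° C in 50 mM Tris-HCl pH 7.9, 20 mM MgCl2, 60 mM (NH4)2SO4. Samples taken at 10, 30, 60 and 120 min, heat-inactivated, and analysed by RP HPLC (methanol gradient in 0.1 M KH2PO4 pH 6.0).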

[3] = Table 3, cap analog added together with mRNA, read-out: Inhibition of in vitro translation (IC50), condition A
[4] = Table 3, cap analog preincubated 60 min in lysate, read-out: Inhibition of in vitro translation (IC50), condition B
[5] = cap analog added together with luciferase mRNA, read-out: Inhibition of in vitro translation (IC50), condition A
[6] = cap analog incubated in translation system 60 min before addition of mRNA, read-out: Inhibition of in vitro translation (IC50), condition B
[7] = 40 μM cap analog, 30° C., up to 120 min

Row | IC50 [1, 3] | IC50 [1, 4] | In vitro translational efficiency (method II) [2] | Translation efficiency in comparison to m^7GpppG-LUC-(A)31 mRNA, Experiment No. 1 [2] | Translation efficiency in comparison to m^7GpppG-LUC-(A)31 mRNA, Experiment No. 2 [2] | Translation efficiency in comparison to m^7GpppG-LUC-(A)31 mRNA, Experiment No. 3 [2] | Translation efficiency in comparison to m^7GpppG-LUC-(A)31 mRNA, Mean [2] | Susceptibility to DcpS (Human DcpS; Table 3) | IC50 [1, 5] | IC50 [1, 6] | Translation efficiency in comparison to m^7GpppG-LUC-(A)31 mRNA, Experiment No. 5 [2] | Susceptibility to DcpS (Human DcpS; [7]) | Translation efficiency in comparison to m^7GpppG-LUC-(A)31 mRNA, Experiment No. 4 [2] | Compound
1 | 3.9 ± 0.5 µM | 11.4 ± 7.2 µM | 2.31 ± 0.22 | 2.53 | 2.31 | 2.09 | 2.31 | hydrolyzed |  |  |  |  |  | CO[C@@H]1[C@H](O)[C@@H](COP(=O)(O)OP(O)(=[Se])OP(=O)(O)OC[C@H]2O[C@@H](n3cnc4c(=O)[nH]c(N)nc43)[C@H](O)[C@@H]2O)O[C@H]1n1c[n+](C)c2c(=O)[nH]c(N)nc21 (single isomer, unassigned) [m2^7,2′-OGppSepG (D2), m2^7,2′-OGppSepG]
2 |  |  |  |  |  |  | 3.56 |  | 3 ± 0.1 µM | 3 ± 0.2 µM | 3.56 | resistant |  | m^7GppBH3pm^7G
3 | 8.3 ± 0.2 µM | 35.1 ± 10.8 µM | 1.00 | 1.00 | 1.00 | 1.00 | 1.00 | hydrolyzed | 8.3 ± 0.2 µM | 35.1 ± 10.8 µM | 1.00 | hydrolyzed | 1.00 | Cn1c[n+]([C@@H]2O[C@H](COP(=O)(O)OP(=O)(O)OP(=O)(O)OC[C@H]3O[C@@H](n4cnc5c(=O)[nH]c(N)nc54)[C@H](O)[C@@H]3O)[C@@H](O)[C@H]2O)c2nc(N)[nH]c(=O)c21 [m^7GpppG, m^7G(5′)ppp(5′)G, reference compound]
4 | 8.4 ± 1.4 µM | 14.7 ± 1.6 µM | 2.24 ± 0.28 | 2.05 | 2.09 | 2.16 | 2.24 | hydrolyzed |  |  |  |  | 2.65 | CO[C@@H]1[C@H](O)[C@@H](COP(=O)(O)OP(O)(=[Se])OP(=O)(O)OC[C@H]2O[C@@H](n3cnc4c(=O)[nH]c(N)nc43)[C@H](O)[C@@H]2O)O[C@H]1n1c[n+](C)c2c(=O)[nH]c(N)nc21 (single isomer, unassigned) [m2^7,2′-OGppSepG (D1), m2^7,2′-OGppSepG]
